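In this assay, cells in 96-well plates receive the compound at five concentrations for 48 hours. Endpoints are linearly interpolated between the surrounding concentrations. GI50 = concentration required for 50% inhibition of growth.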 The source made the active and inactive calls. Cut-off read from the data, not from the text of the source: active = GI50 up to about 1.1 µM and inactive = higher.
Columns and labels:
Assay in all cases: NCI-60 cell line screen, 48 h
[1] = system: 786-0
[2] = system: A498
[3] = system: A549
[4] = system: ACHN
[5] = system: CAKI-1
[6] = system: CCRF-CEM
[7] = system: COLO 205
[8] = system: DLD-1
[9] = system: DMS-114
[10] = system: DMS-273
[11] = system: EKVX
[12] = system: HCC 2998
[13] = system: HCT-116
[14] = system: HCT-15
[15] = system: HL-60
[16] = system: HOP-18
[17] = system: HOP-62
[18] = system: HOP-92
[19] = system: HT-29
[20] = system: IGROV-1
[21] = system: K562
[22] = system: KM-20L2
[23] = system: KM12
[24] = system: LOX IMVI
[25] = system: LXFL 529
[26] = system: M14
[27] = system: M19-MEL
[28] = system: MOLT-4
[29] = system: Malme-3M
[30] = system: NCI-H226
[31] = system: NCI-H23
[32] = system: NCI-H460
[33] = system: NCI-H522
[34] = system: OVCAR-3
[35] = system: OVCAR-4
[36] = system: OVCAR-5
[37] = system: OVCAR-8
[38] = system: RPMI-8226
[39] = system: RXF 631
[40] = system: SF-268
[41] = system: SF-295
[42] = system: SF-539
[43] = system: SK-MEL-28
[44] = system: SK-MEL-2
[45] = system: SK-MEL-5
[46] = system: SK-OV-3
[47] = system: SN12C
[48] = system: SNB-19
[49] = system: SNB-75
[50] = system: SNB-78
[51] = system: SR
[52] = system: SW-620
[53] = system: TK-10
[54] = system: U-251
[55] = system: UACC-257
[56] = system: UACC-62
[57] = system: UO-31
[58] = system: XF498
[59] = system: BT-549
[60] = system: DU-145
[61] = system: Hs-578T
[62] = system: MCF7
[63] = system: MDA-MB-231
[64] = system: MDA-MB-435
[65] = system: MDA-N
[66] = system: NCI/ADR-RES
[67] = system: PC-3
[68] = system: RXF 393
[69] = system: T47D

CN(C(=O)C12C3C4C5C3C1(C(=O)O)C5C42)C(C)(C)C (configuration not stated)
GI50 [1]: > 100 µM (inactive)
GI50 [2]: > 100 µM (inactive)
GI50 [3]: 42.2 µM (inactive)
GI50 [4]: > 100 µM (inactive)
GI50 [5]: > 100 µM (inactive)
GI50 [6]: 76.6 µM (inactive)
GI50 [7]: 28 µM (inactive)
GI50 [8]: 23.7 µM (inactive)
GI50 [9]: 28.9 µM (inactive)
GI50 [10]: 16.5 µM (inactive)
GI50 [11]: > 100 µM (inactive)
GI50 [12]: > 100 µM (inactive)
GI50 [13]: 34.2 µM (inactive)
GI50 [14]: 33.2 µM
GI50 [15]: 17.1 µM (inactive)
GI50 [16]: > 100 µM (inactive)
GI50 [17]: > 100 µM (inactive)
GI50 [18]: > 100 µM (inactive)
GI50 [19]: 78.5 µM (inactive)
GI50 [20]: > 100 µM (inactive)
GI50 [21]: 44.6 µM (inactive)
GI50 [22]: > 100 µM (inactive)
GI50 [23]: > 100 µM (inactive)
GI50 [24]: 26.1 µM (inactive)
GI50 [25]: 74.8 µM (inactive)
GI50 [26]: > 100 µM (inactive)
GI50 [27]: > 100 µM (inactive)
GI50 [28]: > 100 µM (inactive)
GI50 [29]: > 100 µM (inactive)
GI50 [30]: > 100 µM (inactive)
GI50 [31]: > 100 µM (inactive)
GI50 [32]: > 100 µM (inactive)
GI50 [33]: > 100 µM (inactive)
GI50 [34]: > 100 µM (inactive)
GI50 [35]: > 100 µM (inactive)
GI50 [36]: > 100 µM (inactive)
GI50 [37]: > 100 µM (inactive)
GI50 [38]: 52 µM (inactive)
GI50 [39]: > 100 µM (inactive)
GI50 [40]: > 100 µM (inactive)
GI50 [41]: > 100 µM (inactive)
GI50 [42]: > 100 µM (inactive)
GI50 [43]: > 100 µM (inactive)
GI50 [44]: > 100 µM (inactive)
GI50 [45]: > 100 µM (inactive)
GI50 [46]: > 100 µM (inactive)
GI50 [47]: > 100 µM (inactive)
GI50 [48]: > 100 µM (inactive)
GI50 [49]: > 100 µM (inactive)
GI50 [50]: > 100 µM (inactive)
GI50 [51]: > 100 µM (inactive)
GI50 [52]: 23.9 µM (inactive)
GI50 [53]: > 100 µM (inactive)
GI50 [54]: > 100 µM (inactive)
GI50 [55]: > 100 µM (inactive)
GI50 [56]: > 100 µM (inactive)
GI50 [57]: > 100 µM (inactive)
GI50 [58]: > 100 µM (inactive)

CC[C@@]1(O)C(=O)OCc2c1c(Cl)c1n(c2=O)Cc2cc3ccccc3nc2-1
GI50 [1]: 1.22 µM (inactive)
GI50 [2]: 2.18 µM (inactive)
GI50 [3]: 2.06 µM (inactive)
GI50 [4]: 1.16 µM (inactive)
GI50 [59]: 8.67 µM (inactive)
GI50 [5]: 0.736 µM (active)
GI50 [6]: 0.372 µM (active)
GI50 [7]: 5.52 µM (inactive)
GI50 [8]: 6.68 µM (inactive)
GI50 [9]: 1.35 µM (inactive)
GI50 [10]: 0.605 µM (active)
GI50 [60]: 1.92 µM (inactive)
GI50 [11]: 6.1 µM (inactive)
GI50 [12]: 3.4 µM (inactive)
GI50 [13]: 1.36 µM (inactive)
GI50 [14]: 7.98 µM
GI50 [15]: 2.19 µM (inactive)
GI50 [16]: 3.21 µM (inactive)
GI50 [17]: 0.733 µM (active)
GI50 [18]: 7.62 µM (inactive)
GI50 [19]: 2.18 µM (inactive)
GI50 [61]: 31.4 µM (inactive)
GI50 [20]: 4.08 µM (inactive)
GI50 [21]: 2.1 µM (inactive)
GI50 [22]: 4.47 µM (inactive)
GI50 [23]: 6.38 µM (inactive)
GI50 [24]: 1.16 µM (inactive)
GI50 [25]: 8.15 µM (inactive)
GI50 [26]: 2 µM (inactive)
GI50 [27]: 1.67 µM (inactive)
GI50 [62]: 0.708 µM (active)
GI50 [63]: 61 µM (inactive)
GI50 [64]: 8.95 µM (inactive)
GI50 [65]: 7.24 µM (inactive)
GI50 [28]: 0.327 µM (active)
GI50 [29]: 4.53 µM (inactive)
GI50 [30]: 2.14 µM (inactive)
GI50 [31]: 2.05 µM (inactive)
GI50 [32]: 0.383 µM (active)
GI50 [33]: 1.69 µM (inactive)
GI50 [66]: 1.8 µM (inactive)
GI50 [34]: 6.35 µM (inactive)
GI50 [35]: 8.97 µM (inactive)
GI50 [36]: 5.07 µM (inactive)
GI50 [37]: 3.05 µM (inactive)
GI50 [67]: 4.93 µM (inactive)
GI50 [38]: 1.73 µM (inactive)
GI50 [68]: 2.52 µM (inactive)
GI50 [39]: 2.48 µM (inactive)
GI50 [40]: 1.31 µM (inactive)
GI50 [41]: 1.22 µM (inactive)
GI50 [42]: 2.08 µM (inactive)
GI50 [43]: 10.4 µM (inactive)
GI50 [44]: 12.3 µM (inactive)
GI50 [45]: 1.75 µM (inactive)
GI50 [46]: 4.24 µM (inactive)
GI50 [47]: 2.7 µM (inactive)
GI50 [48]: 2.36 µM (inactive)
GI50 [49]: 1.84 µM (inactive)
GI50 [50]: 7.18 µM (inactive)
GI50 [51]: 0.27 µM (active)
GI50 [52]: 1.95 µM (inactive)
GI50 [69]: 1.31 µM (inactive)
GI50 [53]: 19 µM (inactive)
GI50 [54]: 1.07 µM (active)
GI50 [55]: 2.39 µM (inactive)
GI50 [56]: 0.528 µM (active)
GI50 [57]: 1.26 µM (inactive)
GI50 [58]: 3.07 µM (inactive)

Reference: ChEMBL document CHEMBL1201862, “PubChem BioAssay data set” (2004)
